# Structures can show the parent of a compound that is named as a salt.
# How the values were obtained:
# rat iNOS (inducible NOS) = biological target: T1, rat iNOS (inducible NOS) (Rattus norvegicus, UniProt Q06518); assay: NOS activity, [3H]arginine to [3H]citrulline conversion, iNOS; assay type: biochemical; settings: Conc = 1 mM
# T1 construct: purchased Cayman, Ann Arbor, Mich
# Procedure: (§1) NOS activity was measured by monitoring the conversion of [^3H]arginine to [^3H]citrulline (Bret et al. 1990) using three commercially available isoforms of rat NOS: nNOS (neuronal NOS) (602 units/ml, 14.9 mg/ml), iNOS (inducible NOS) (249.7 units/ml, 21.1 mg/ml), and eNOS (epithelial NOS) (30 units/ml, 14.6 mg/ml) (Cayman, Ann Arbor, Mich.). Neuronal NOS and iNOS were diluted 1:10, while eNOS was used directly without dilution. Unless otherwise indicated, each tube was incubated at 37° C. for 60 minutes. Assay buffer contained 50 mM Tris-HCl, pH7.4, 2 mM CaCl2, 1 mM NADPH, 10 mM BH4, 5 mM FAD, 5 mM FMN, and 10 mg/ml calmodulin plus radioactive precursor. After incubation, the assay reaction was halted by addition of 400 μl of buffer containing 5 mM EDTA and 50 mM HEPES. Equilibrated resin ([…], Dowex AG50WX-8 (Na^+ form) was added and the reaction mixture was transferred to spin cups and into cup holders. The mixture was passed through the Dowex AG50WX-8 resin and the filtrate collected in a spin cup. NOS activity was determined by counting the radioactivity in the flow-through (unbound) fraction. Each assay was measured in triplicate.
# (§2) QSAR were studied by ab initio Hartree-Fock calculations with the Gaussian 94 computer program (Frisch et al. 1995). Based on the optimized geometry and van der Waals radius of each atom, calculations were performed with BlogP and BlogW programs (Bodor et al. 1989, 1992A, and 1992B) to determine molecular surfaces, volumes, ovalities, partition coefficients, and water solubilities. Linear combinations of these calculated descriptors were then fitted to the observed enzyme activities. The observed activities were the remaining percentage of rat agmatinase activity at 0.5 mM of each compound, the remaining percentage of rat NOS isozyme activity at 1 mM of each compound, and the remaining percentage of rat brain NMDA receptor binding at 0.1 mM of each compound.
# rat nNOS (neuronal NOS) = biological target: T2, rat nNOS (neuronal NOS) (Rattus norvegicus, UniProt P29476); assay: NOS activity, [3H]arginine to [3H]citrulline conversion, nNOS; assay type: biochemical; settings: Conc = 1 mM
# T2 construct: purchased Cayman, Ann Arbor, Mich
# Procedure: as §1, §2
# rat agmatinase = assay: Agmatinase activity assay ([14C]-agmatine hydrolysis); assay type: biochemical; settings: for Agmatinase activity remaining (%): Conc = 0.5 mM; for Activity for inhibiting agmatinase, in words: among the 14 test compounds
# Procedure: Agmatinase activity was measured by the method of Satishchandran and Boyle (1986) as detailed in Sastre et al. (1996). The assay is based on the hydrolysis of guanido [^14C]-agmatine to [^14C]-urea and putrescine, and subsequent trapping of [^14C]—CO2 from the labeled urea, by the addition of urease. Assays were carried out for 30 minutes at 37° C. in 300 μl of sample containing 100 mM HEPES, pH 7.8, 4 mM MgSO4, 1 mM dithiothreitol, 10 mM L-agmatine, 7 μM [^14C]-agmatine and 0.06 units of urease. Release of [^14C]—CO2 from [^14C]-urea was measured by trapping the [^14C]—CO2 in filter paper wicks saturated with benzethonium hydroxide. The reaction was stopped by injection of 40% trichloroacetic acid into the reaction chamber and the filters transferred to mini-vials containing 5 mL CYTOSCINT® cocktail (ICN Biomedicals), and counted for radioactivity by liquid scintillation spectrometry using a Beckman model LS 5801 scintillation counter.
# as §2
# rat brain NMDA receptor = assay: [3H]-MK801 binding assay in rat brain membranes; settings: Conc = 0.1 mM
# Procedure: The binding of [^3H]-MK801 to NMDA (N-methyl-D-aspartate) receptors was measured in rat brain membranes as described in Renolds et al. (1990). Briefly, the membranes were incubated in HEPES buffer (pH 7.4) containing 0.4 nM [^3H]-MK801, 100 μM glutamate, and 30 μM glycine for 1 hour at 25° C. The binding was terminated by rapid filtration over glass fiber filters and radioactivity counted. Nonspecific binding was defined using 50 μM unlabelled MK801.
# QSAR were studied by ab initio Hartree-Fock calculations with the Gaussian 94 computer program (Frisch et al. 1995). Based on the optimized geometry and van der Waals radius of each atom, calculations were performed with BlogP and BlogW programs (Bodor et al. 1989, 1992A, and 1992B) to determine molecular surfaces, volumes, ovalities, partition coefficients, and water solubilities. Linear combinations of these calculated descriptors were then fitted to the observed enzyme activities.
# [1] = biological target: T3, rat eNOS (epithelial NOS) (Rattus norvegicus, UniProt Q62600); assay: NOS activity, [3H]arginine to [3H]citrulline conversion, eNOS; assay type: biochemical; settings: Conc = 1 mM
# T3 construct: purchased Cayman, Ann Arbor, Mich
# Procedure: as §1, §2
remaining activity at 1000 µM (rat iNOS (inducible NOS)),remaining activity at 1000 µM (rat nNOS (neuronal NOS)),remaining activity at 1000 µM [1],Compound,Agmatinase activity remaining (%) (rat agmatinase),3H-MK801 Binding Remaining (%) (rat brain NMDA receptor),Activity Remaining (%) iNOS (rat iNOS (inducible NOS)),Activity Remaining (%) nNOS (rat nNOS (neuronal NOS)),"Activity for inhibiting agmatinase, in words (rat agmatinase)",Activity Remaining (%) eNOS [1]
7%,4.2%,67.4%,C=C[C@](N)(CCCNC(=N)N)C(=O)O (racemic) [Alpha-Vinylarginine],52.0%,99.7%,–,–,–,–
–,–,–,N=C(N)NCCCN [3-Aminopropylguanidine],3.1%,93.9%,5.1%,6.9%,best activity,60.8%
1%,1%,0%,"O=[N+]([O-])c1cccc2cn[nH]c12 [7-nitroindazole, reference compound]",–,–,–,–,–,–
1%,20%,30%,"N=C(N)NN [Amino guanidine, reference compound]",53%,90.6%,–,–,–,–
37.8%,9.8%,83.4%,"NC(N)=NCCCCN=C(N)N [Arcaine sulfate, reference compound]",29.5%,45.1%,–,–,–,–
–,–,–,N=CNCCCNCCCNC=N [Bis (3-(N-Iminomethyl)-aminopropyl)amine],38.0%,99.7%,65.2%,23.5%,–,88.7%
–,–,–,Trans-4-Aminocyclohexyl guanidine,97.0%,–,99.6%,42.5%,best activity,69.4%

Compound,remaining activity at 1000 µM (rat iNOS (inducible NOS)),remaining activity at 1000 µM (rat nNOS (neuronal NOS)),remaining activity at 1000 µM [1],Agmatinase activity remaining (%) (rat agmatinase),3H-MK801 Binding Remaining (%) (rat brain NMDA receptor),Activity Remaining (%) iNOS (rat iNOS (inducible NOS)),Activity Remaining (%) nNOS (rat nNOS (neuronal NOS)),"Activity for inhibiting agmatinase, in words (rat agmatinase)",Activity Remaining (%) eNOS [1]
"N=C(N)NCCCCN.O=S(=O)(O)O [Agmatine sulfate, reference compound]",35.2%,32.5%,97.4%,37%,93.8%,–,–,–,–
